TGI data for eight compounds are collected here from PubChem BioAssay (NCI).

Some test systems named below: ACHN renal; BT-549 breast; CCRF-CEM leukemia; HL-60(TB) leukemia; HOP-62 NSCLC; K-562 leukemia; KM12 colon; MCF7 breast; MDA-MB-435; MOLT-4 leukemia; NCI-H460 lung; RPMI-8226 leukemia; SNB-19 CNS; SNB-75 CNS; SR leukemia; TK-10 renal; UO-31 renal; A498 renal; SK-MEL-5 melanoma; T-47D breast.
Assay in all cases: NCI tumour cell line growth inhibition, 48 h

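How tested: cells in 96-well plates exposed to compound for 48 hours at five concentrations. TGI: total growth inhibition.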

`O=C1c2ccccc2-c2nc(-c3cccs3)cc3c2c1nc1ccccc13`: the TGI in the assay with ACHN renal was above 100 µM; in the assay on BT-549 breast, above 100 µM; with CCRF-CEM leukemia, above 100 µM; in the assay on HL-60(TB) leukemia it was 26.5 µM; in the assay on HOP-62 NSCLC it was 77.6 µM; in the assay with K-562 leukemia, above 100 µM. The TGI in the assay with KM12 colon is above 100 µM; in the assay with MCF7 breast it was 29.2 µM; in the assay with MDA-MB-435 it was 4.51 µM; in the assay on MOLT-4 leukemia, above 100 µM; in the assay on NCI-H460 lung it was above 100 µM; in the assay on RPMI-8226 leukemia, above 100 µM. Besides, the TGI with SNB-19 CNS is above 100 µM; in the assay with SNB-75 CNS, above 100 µM; in the assay on SR leukemia, 34.5 µM; in the assay with TK-10 renal it was above 100 µM; with UO-31 renal it was above 100 µM.
In the case of `CCOc1cc(/C=N\O)cc(/C=N/O)c1O`, the TGI in the assay with A498 renal was 51.1 µM; in the assay on ACHN renal it was 59.4 µM; in the assay with CCRF-CEM leukemia it was above 100 µM; with HL-60(TB) leukemia it was above 100 µM; with HOP-62 NSCLC it was above 100 µM; in the assay on K-562 leukemia, above 100 µM. Further, the TGI in the assay with KM12 colon is above 100 µM; in the assay on MCF7 breast, 25 µM; in the assay on MDA-MB-435, above 100 µM; in the assay on MOLT-4 leukemia, 99 µM; with NCI-H460 lung it was above 100 µM; in the assay with RPMI-8226 leukemia it was above 100 µM. The TGI in the assay with SK-MEL-5 melanoma is 39.5 µM; in the assay with SNB-19 CNS, above 100 µM; in the assay on SNB-75 CNS, 57.6 µM; in the assay with SR leukemia it was above 100 µM; in the assay on T-47D breast, 93.8 µM; in the assay with TK-10 renal it was above 100 µM.
In the case of `CC1(C)CC(=O)c2c([nH]c(=S)c(C#N)c2-c2ccc(Br)cc2)C1`, the TGI with A498 renal, with ACHN renal, in the assay with BT-549 breast, in the assay with CCRF-CEM leukemia, in the assay on HL-60(TB) leukemia and in the assay on HOP-62 NSCLC was above 100 µM throughout. Also, the TGI with K-562 leukemia, in the assay on MCF7 breast, with MDA-MB-435, with NCI-H460 lung, in the assay with SK-MEL-5 melanoma and with SNB-19 CNS was above 100 µM each time. The TGI is above 100 µM with SNB-75 CNS, 51.7 µM in the assay with SR leukemia, above 100 µM with TK-10 renal and above 100 µM in the assay on UO-31 renal.
In the case of `COc1c(N2CCCCC2)c2c(=O)c3ccccc3oc2c2cc(C)oc12`, the TGI is 61.6 µM in the assay on A498 renal; 53.7 µM in the assay with ACHN renal; 97.9 µM in the assay on BT-549 breast; above 100 µM in the assay with CCRF-CEM leukemia; 58 µM in the assay with HL-60(TB) leukemia; above 100 µM in the assay on HOP-62 NSCLC. Besides, the TGI is above 100 µM in the assay on K-562 leukemia; 62.4 µM with KM12 colon; above 100 µM with MCF7 breast; above 100 µM with MDA-MB-435; above 100 µM in the assay with MOLT-4 leukemia; above 100 µM with NCI-H460 lung. Moreover, the TGI in the assay on RPMI-8226 leukemia was 50.3 µM; in the assay with SK-MEL-5 melanoma, 40.7 µM; in the assay with SNB-19 CNS, above 100 µM; with SNB-75 CNS, 42.9 µM; in the assay with TK-10 renal it was above 100 µM; in the assay on UO-31 renal it was 54 µM.
Regarding `Cc1cc(C)c(-n2c(C)c(C)c(C#N)c2N)c(C)c1`, the TGI in the assay with A498 renal was 97.1 µM; in the assay with ACHN renal, 78.9 µM; in the assay with BT-549 breast, above 100 µM; in the assay on CCRF-CEM leukemia, 45.5 µM; with HL-60(TB) leukemia, 37 µM; in the assay with HOP-62 NSCLC, above 100 µM. Moreover, the TGI was 78.5 µM in the assay with K-562 leukemia; above 100 µM with KM12 colon; above 100 µM in the assay on MDA-MB-435; 68.5 µM in the assay with MOLT-4 leukemia; 78.6 µM in the assay with NCI-H460 lung; 54.6 µM in the assay with RPMI-8226 leukemia. The TGI was 37.2 µM in the assay with SK-MEL-5 melanoma; above 100 µM in the assay with SNB-19 CNS; above 100 µM with SNB-75 CNS; 38.4 µM in the assay on SR leukemia; above 100 µM in the assay on T-47D breast; above 100 µM in the assay with TK-10 renal. The same compound came in with a TGI with UO-31 renal above 100 µM.
For the compound `Clc1ccc(C2ON=C(c3ccccc3)N2C23CC4CC(CC(C4)C2)C3)cc1Cl` (stereo not drawn), the TGI in the assay on A498 renal, with ACHN renal, in the assay with BT-549 breast, in the assay on CCRF-CEM leukemia, in the assay with HOP-62 NSCLC and in the assay on K-562 leukemia was above 10 µM each time. Besides, the TGI in the assay with KM12 colon, in the assay on MCF7 breast, in the assay with MDA-MB-435, in the assay on MOLT-4 leukemia, in the assay on NCI-H460 lung and in the assay on RPMI-8226 leukemia was above 10 µM in each case. Besides, the TGI in the assay on SK-MEL-5 melanoma, in the assay with SNB-19 CNS, in the assay on SNB-75 CNS, with T-47D breast, in the assay with TK-10 renal and in the assay with UO-31 renal was above 10 µM in each case.
In the case of `Cc1ccc2c(=O)cc(-c3cc4ccccc4s3)[nH]c2n1`, the TGI with ACHN renal, in the assay with BT-549 breast, with CCRF-CEM leukemia, in the assay on HL-60(TB) leukemia, with HOP-62 NSCLC and in the assay with K-562 leukemia was above 100 µM throughout. Besides, the TGI with KM12 colon, in the assay on MCF7 breast, with MDA-MB-435, in the assay on MOLT-4 leukemia, in the assay on NCI-H460 lung and in the assay on RPMI-8226 leukemia was above 100 µM each time. Moreover, the TGI with SK-MEL-5 melanoma is above 100 µM; in the assay on SNB-19 CNS, above 100 µM; with SNB-75 CNS it was 67.6 µM; in the assay on T-47D breast it was 48 µM; in the assay on TK-10 renal it was above 100 µM; with UO-31 renal, 0.17 µM.
With `Cc1nnc(N2C(=O)C(=Cc3ccc(Cl)cc3)N=C2c2ccc(Cl)cc2)nc1/C=C\c1ccc(N(C)C)cc1`, the TGI in the assay with A498 renal, with ACHN renal, in the assay with BT-549 breast, in the assay on CCRF-CEM leukemia, in the assay on HL-60(TB) leukemia and with HOP-62 NSCLC was above 100 µM in each case. In addition, the TGI with K-562 leukemia, in the assay with KM12 colon, in the assay with MCF7 breast, in the assay on MDA-MB-435, with MOLT-4 leukemia and in the assay with NCI-H460 lung was above 100 µM each time. Also, the TGI in the assay on RPMI-8226 leukemia, with SK-MEL-5 melanoma, with SNB-19 CNS, with SNB-75 CNS, in the assay on T-47D breast and with TK-10 renal was above 100 µM each time. Moreover, the TGI in the assay on UO-31 renal was above 100 µM.
